Measurements from patent US10596216B2, “Use of a Withania extract for the treatment of amyloid-related diseases” (Ethnodyne, priority 2015, dated 2020).

Tested on: rat primary cortical cultures
Experiment: Neuroprotective effect following exposure to glutamate (Example 12)
Format: cell-based
Conditions: glutamate 40 μM, 20 min, primary cortical neuron culture
Protocol: This study investigated the neuroprotective effect of the composition WEB-2 on rat primary cortical cultures following exposure to glutamate (40 μM, 20 min application), an in vitro AD model.
Pregnant Wistar females rat (JanvierLabs, France) at 15 days of gestation were killed by cervical dislocation. The foetuses were prepared as in example 11.
Once obtained, the cells were seeded at a density of 30,000 per well in 96-well plates precoated with poly-L-lysine (Batch: 3102256, Corning Biocoat) and were cultured at 37° C. in an air (95%)-CO2 (5%) incubator. The medium was changed every 2 days. The cortical neurons were intoxicated with glutamate solution.
On day 13 after culture, glutamate (Batch: 061M0030V, Sigma) was added into cell culture to a final concentration of 40 μM diluted in control medium for 20 min. After 20 min, the cells were washed-out and new fresh medium containing or not WEB-2 was added for 48 h additional time. […]
The immunolabeled cultures were automatically examined with ImageXpress equipped with a LED at ×20 magnification. For each condition (6 culture wells), 30 automatically fields per well (representing ˜80% of the total surface of the well) were analyzed. The total number of neurons and neurite length were automatically analyzed using MetaXpress software.

SMILES: N[C@@H](CCC(=O)O)C(=O)O [Glutamate, glutamate]
- neurite network loss induced: neurite network loss
- neuronal death induced: significant neuronal death
